The subject of data set [1] is platelets. Conditions: cited from earlier work.
For data set [2], the system named is platelets recruited on the collagen surface. The data set is described as follows: Real time perfusion chamber thrombosis assay (whole blood over collagen-coated chamber, fluorescent platelets). The class given is cell-based, human. Conditions: for interaction with antithrombotic activity of clopidogrel: 12 healthy individuals on clopidogrel 75 mg/d, ifetroban spiked into whole blood, aspirin 325 mg/d over the third week; for antithrombotic activity versus aspirin: 100 nM or 350 nM spiked in vitro. On the procedure:
The experiment was performed by perfusing whole blood anticoagulated with factor Xa inhibitor (10 μM) through a human collagen type III-coated perfusion chamber. Platelets were fluorescently labeled in vitro using Rhodamine 6G (1.25 μg/ml final concentration), and thrombosis was monitored in real time by measuring the amount of fluorescent platelets recruited on the collagen surface using fluorescence microscopy. The results are depicted in FIG. 3.
The experiments are performed in the real time thrombosis perfusion chamber device. In this system, the real time thrombotic process triggered by perfusion of Factor Xa anticoagulated whole blood is studied using a collagen coated perfusion chamber at arterial shear rates.
A dose response study of the antithrombotic and anti-aggregatory effects of vehicle control, indomethacin (from 10 nM to 10 uM), and ifetroban (from 10 nM to 3 uM) spiked in vitro in the blood of aspirin-intolerant individuals before, and after treatment with clopidogrel (75 mg/d for a minimum of 5 days, n≧10) is performed. Experiments are performed in the real time perfusion chamber assay under arterial shear rates conditions. […] By using indomethacin we can confirm that Cox-1 inhibition indeed can provide additional antithrombotic properties; however, the intolerance prevents the use of a COX-1 inhibitor.
Real time perfusion chamber assays (RTTP) were performed using blood anticoagulated with Fxa inhibitor (10 uM 034) and perfused through collagen-coated capillaries (1100/sec). Thrombus formation on the collagen surface was monitored in real time using fluorescence microscopy to detect fluorescently labeled (R6G) platelets.

Another data set relates to preformed thrombi. Nature of the data set: Thrombus stability / dethrombosis of preformed thrombi. The class given is cell-based. From the text: The addition of a TP antagonist to preformed thrombi caused dethrombosis (FIG. 5A).
Data set [3] deals with platelet recruitment on the injured vessel wall. Nature of the data set: Intravital microscopy, ferric chloride injury of mesenteric arteries. The class given is in vivo, mice. Conditions: Example 5; for antithrombotic activity in P2Y12 heterozygous animals: P2Y12 heterozygous mice; for antithrombotic activity in wild type animals: wild type mice. As to the method: The methodology utilized is intravital microscopy. In this system, injury of the mesenteric arteries is performed by topical application of a filter paper that has been previously soaked into a ferric chloride solution. Monitoring of the recruitment of fluorescently labeled platelets on the injured vessel wall is performed in real time using an inverted fluorescent microscope connected to a computer.

For a further data set, the system named is leukotrienes. The data set is described as follows: In vivo determination of the levels of leukotrienes. On the set-up: species or system mice. Conditions: Example 5; treated animals. An excerpt: In vivo monitoring of gastrointestinal bleeding and determination of the levels of leukotrienes will be performed.
For data set [4] the following is noted: cited from earlier work.
Another data set relates to coronary arteries. Conditions: coronary arteries of dogs; cited from earlier work.
For data set [5] the following is noted: Gresele et al.; cited from earlier work.
The target of the next data set is P2Y12 ADP receptor (Homo sapiens, UniProt Q9H244). Conditions: cited from earlier work.
The conditions of data set [6]: compared with clopidogrel; cited from earlier work.
Data set [7] has as its system platelets. The data set is described as follows: Collagen-induced platelet aggregation (light transmittance aggregometry). The class given is cell-based, human. Conditions: for anti-aggregatory activity, collagen-induced platelet aggregation: 1 μM, 100 nM, 350 nM. On the procedure:
PRP-induced platelet aggregation are performed with arachidonic acid (between 200 μM and 1 mM), U46619 (a TP agonist) (between 0.5 μM and 5 μM) and collagen (around 4 μg/ml) as platelet agonists. Indomethacin and
(§1) Light transmittance aggregometry (LTA) assays were performed by standard procedures, initiating platelet aggregation with collagen or arachidonic acid.

Data set [8] deals with platelets. Nature of the data set: Arachidonic acid-induced platelet aggregation (light transmittance aggregometry). The class given is cell-based, human. Conditions: healthy volunteers and AERD patients; 1 μM, 350 nM, 100 nM; FIGS. 10A and 10B. As to the method:
as §1

The mark [9] stands for this setting: HOT trial, hypertensive patients, 75 mg/d vs placebo.

Bounds are passed on as bounds.

P2Y12 ADP receptor, sequence (Q9H244 whole entry): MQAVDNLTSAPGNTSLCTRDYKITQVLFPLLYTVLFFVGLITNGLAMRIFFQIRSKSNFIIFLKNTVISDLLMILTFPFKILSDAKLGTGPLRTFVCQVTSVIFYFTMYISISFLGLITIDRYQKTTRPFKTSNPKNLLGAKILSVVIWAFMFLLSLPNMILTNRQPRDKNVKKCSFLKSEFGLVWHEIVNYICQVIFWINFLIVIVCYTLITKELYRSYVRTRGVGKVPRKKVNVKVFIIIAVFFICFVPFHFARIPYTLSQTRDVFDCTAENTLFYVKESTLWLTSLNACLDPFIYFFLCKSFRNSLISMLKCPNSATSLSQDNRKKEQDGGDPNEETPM

As to `CC(C)Cc1ccc(C(C)C(=O)O)cc1` (stereo not shown) [ibuprofen], the “effect of concomitant administration on antiaggregatory activity of aspirin” value in the data set with platelets [1] (Catella-Lawson et al.) is given as “reduce the antiaggregatory activity of aspirin”.

Regarding ortho-acetylsalicylic acid [aspirin], in data set [2] (FIG. 4), the “interaction with antithrombotic activity of clopidogrel” value is “synergized with the antithrombotic activity of clopidogrel”. The “effect of prior aspirin treatment on dethrombotic activity of a TP antagonist” value in the data set on preformed thrombi (FIG. 5C) is reported as “prevented by prior aspirin treatment”. Further, in [3], the “antithrombotic activity in P2Y12 heterozygous animals” value is given as “profound inhibition” and the “antithrombotic activity in wild type animals” value is given as “at least similar antithrombotic activity”. For the same compound, the levels of leukotrienes result with leukotrienes was “increased”. Also, in data set [4] (75-325 mg doses), the “individuals developing gastroduodenal ulcers” value is recorded as 1 out of 10. Moreover, the “reduction in vascular events” value in [4] (Antithrombotic Trialist's Collaboration, overall) is on record as 22%. For the same compound, in [4] (setting [9]), the “reduction in cardiovascular events” value is given as 15% and the “reduction in myocardial infarction” value is 36%. For the same compound, in data set [4] (Primary Prevention Project, 100 mg/d, at-risk patients, reduced from 1.4%), the “incidence of cardiovascular death” value is on record as 0.8%. The “reduction in adverse events” value in data set [4] (hundreds of randomized clinical trials, at-risk patients) is on record as 20-25%. In data set [4] (oral challenge with aspirin or NSAID), the “asthmatic adults developing severe bronchoconstriction” value is given as 5-20%. Also, the “effect on prolongation in occlusion time by U63,557a with L636,499” value with coronary arteries was “inhibited the prolongation in occlusion time”.

As for `COc1ccc2c(c1)c(CC(=O)O)c(C)n2C(=O)c1ccc(Cl)cc1` [indomethacin], in [5], the “effect on bleeding time prolongation activity of BM 13.177 promoted by dazoxiben” value is recorded as “blocked the ability of dazoxiben”.

For `O=C(O)COc1ccc(CCNS(=O)(=O)c2ccccc2)cc1` [Sulotroban], in data set [4] (M-HEART-II study, 752 patients), the “restenosis following PTCA” value is on record as “no different than aspirin or placebo”. Also, the “clinical events (death, MI or clinically important restenosis)” value in data set [4] (M-HEART-II study) was “inferior to aspirin”.

As to `O=C(O)CCCCO/N=C(/c1cccnc1)c1cccc(C(F)(F)F)c1` [ridogrel], the “enhancing fibrinolytic efficacy of streptokinase” value in data set [4] (RAPT study, 907 patients with acute myocardial infarction) was “not found to be superior to aspirin”. Further, the “preventing new ischaemic events” value in [4] (RAPT study) is recorded as “may have been more efficacious than aspirin”.

With `CNc1cc2[nH]c(=O)n(-c3ccc(NC(=O)NS(=O)(=O)c4ccc(Cl)s4)cc3)c(=O)c2cc1F`, at P2Y12 ADP receptor, the “de-aggregation of preformed thrombi” value was “de-aggregate preformed thrombi” and the “inhibition of ADP-mediated platelet aggregation” value is “reversible inhibitor”. For the same compound, the pharmacokinetic properties entry in data set [6] is reported as “superior pharmacokinetic properties to clopidogrel”.

In the case of `CCCCCNC(=O)c1coc([C@H]2[C@@H](Cc3ccccc3CCC(=O)[O-])[C@@H]3CC[C@H]2O3)n1.[Na+]` [ifetroban, [1S-(1α,2α,3α,4α)]-2-[[3-[4-[(pentylamino)carbonyl]-2-oxazolyl]-7-oxabicyclo[2.2.1]hept-2-yl]methyl]benzenepropanoic acid], the “inhibition of thrombosis on a clopidogrel background” value in data set [2] (30 nM to 1 μM spiked into whole blood of normal volunteers treated with clopidogrel 75 mg/day for 2 weeks, FIG. 4) is “inhibited thrombosis to the same extent as aspirin”. Besides, the “interaction with antithrombotic activity of clopidogrel” value in data set [2] (FIG. 4) is listed as “synergized with the antithrombotic activity of clopidogrel”. For the same compound, the “antithrombotic activity versus aspirin” value in data set [2] (AERD patients, aspirin after desensitization, FIG. 7B) is given as “significant antithrombotic activity versus aspirin”; in [2] (healthy volunteers, FIG. 7A) it was “significant antithrombotic activity versus aspirin”. Moreover, the “anti-aggregatory activity, collagen-induced platelet aggregation” value is “significant anti-aggregatory activity” in the data set with platelets [7] (AERD patients, FIG. 8B) and “significant anti-aggregatory activity” in the data set on platelets [7] (healthy volunteers, FIG. 8A). Moreover, the “concentrations at which aspirin effects on collagen-induced platelet aggregation and thrombosis were reproduced” value is given as more than 100 nM in the data set with platelets [7] (AERD patients, FIG. 8B) and more than 100 nM in the data set with platelets [7] (normal volunteers, FIG. 8A). Further, the “anti-aggregatory activity, arachidonic acid-induced platelet aggregation” value in the data set with platelets [8] is “anti-aggregatory activity”. Besides, the “antithrombotic activity in P2Y12 heterozygous animals” value in [3] was “profound inhibition”. The “antithrombotic activity in wild type animals” value in [3] is reported as “at least similar antithrombotic activity”. The levels of leukotrienes entry in the data set on leukotrienes was “maintained constant”.

Consider `CC(C)(C)N/C(=N\C#N)Nc1cccc(/C(=C\CCCC(=O)O)c2cccnc2)c1` [terbogrel, 5-hexenoic acid, 6-[3-[[(cyanoamino)[(1,1-dimethylethyl)amino]methylene]amino]phenyl]-6-(3-pyridinyl)-, (E-)], for which, in the data set with platelets [1] (Zimmermann et al.), the “antiaggregatory activities in aspirin-treated individuals” value is on record as “additional antiaggregatory activities”.

Consider `CCCCC[C@H](O)/C=C/[C@@H]1[C@@H](C/C=C\CCCC(=O)O)[C@H]2CO[C@@H]1C2` [U46619], for which the thrombus stability result with preformed thrombi (TXA2 mimetic, FIG. 5B) is “can promote thrombus stability”.

As for `O=C(O)CC/C=C\CC[C@@H]1[C@@H](N2CCCCC2)[C@@H](O)C[C@@H]1OCc1ccc(-c2ccccc2)cc1` [GR 32191, [1R-[1α(Z),2β,3β,5α]]-(+)-7-[5-([1,1′-biphenyl]-4-ylmethoxy)-3-hydroxy-2-(1-piperidinyl)cyclopentyl]-4-heptenoic acid], in data set [4] (CARPORT trial), the prevention of restenosis entry is given as “lack activity in the prevention of restenosis”.

In the case of `COC(=O)[C@H](c1ccccc1Cl)N1CCc2sccc2C1` [clopidogrel], the efficacy versus aspirin entry in data set [4] (CAPRIE trial) is listed as “more efficacious than aspirin”. Moreover, the relative risk reduction in [4] (CURE trial, clopidogrel with aspirin vs placebo plus aspirin, unstable angina or non-ST segment elevation MI) is 20%.

`CCCCC[C@H](O)/C=C/[C@H]1C(=O)C[C@H](O)[C@@H]1C/C=C\CCCC(=O)O` [PGD2, prostaglandin D2]: the dethrombotic activity result in the data set on preformed thrombi (physiological concentrations added to aspirinated blood, FIG. 5C) is given as “induced a profound dethrombotic activity”.

(Values after patent US20090012115A1 (Portola Pharmaceuticals, Inc., priority 2007, published 2009).)
